pIC50, pKd: −log10 of the molar value. Like-named read-outs stand apart in the source and are kept apart here.
Legend:
CDK3/CycE1 = CDK3/CycE1 (Homo sapiens, UniProt Q00526); assay: CDK family single point inhibition assay; type: biochemical; conditions: Km ATP
CDK1/CycB1 = CDK1/CycB1 (Homo sapiens, UniProt P06493); assay: CDK family single point inhibition assay; type: biochemical; conditions: Km ATP
[1] = 14-days toxicology study, hematology; type: in vivo, CD-1 mice; conditions: for GRA / HCT / HGB / LYMPH / MONO / MPV / PLT / RBC / WBC: 14 days
Method: To evaluate toxicity of the SEL120-34A compound, a 14-days toxicology study was run in CD-1 female mice. The day before the first administration of vehicle (BID, PO) or test compound, mice were weighed and randomized into uniform groups (5 mice per group). Prior to use, the test compound was dissolved freshly in water and administered PO at indicated doses in a volume of 10 μl per 1 g of body weight. Body weight and the general condition of the animals were monitored daily. When the study finished on Day 15, mice were subjected to anesthesia, and blood was collected into tubes containing K2EDTA for analysis of hematology parameters (ABC Vet Animal Blood Counter).

CDK19/CycC = CDK19/CycC (Homo sapiens, UniProt Q9BWU1); assay: Radiometric protein kinase assay (PanQinase, ProQinase)
AML cell lines = assay: Broad profiling in a panel of AML cell lines (extended viability tests); type: cell-based; conditions: SKNO-1, KG-1, HEL-60, MOLM-16, MV-4-11, OciAML-2, MOLM-6 and OciAML-3; read-out: GI50 in sensitive responder cell lines
Method: Mean GI50 (day 10) is shown and plotted on the graph (n=3). (D) Levels of phosphorylated STAT5 S726 and […] in AML cells from the panel C were measured by WB. Densitometry for STAT5 S726 and […] signals is shown and plotted on the graph. Cell lines from the panel D were divided into two classes based on the sensitivity to CDK8 inhibitors treatment (responders GI50<1 μM and non-responder GI50>1 μM), mean levels of STAT5 S726 (E) or STAT1 S727 (F) in selected cell lines measured by densitometry were presented on scatter plots. Differences between responder and non-responder were assessed by t-tests (p value is shown).
Cells grown in suspension were plated onto 96-well culture dishes in triplicate at 20000 cells per well in 200 μl of their culture medium, except Kasumi-1 cells, which were plated at 60 000/well. Cells were incubated in the presence of vehicle, 1 μM docetaxel (positive control, Santa Cruz Biotechnology) or 6 serially - diluted concentrations of tested compound. The compound effect was determined by AlamarBlue measurement. On days 3, 6-7 and 10, an equal volume from all wells was also split-back with fresh media supplemented with tested compound, resulting in a cell density for the vehicle well that matched the initial seeding density. […]

CDK8/CycC = CDK8/CycC (Homo sapiens, UniProt P49336); assay: CDK8 Eu kinase binding assay (LanthaScreen TR-FRET); design: purchased ProQinase; conditions: read-out: dissociation constant (Kd) for the CDK8 protein
Chain of CDK8/CycC (P49336 whole entry): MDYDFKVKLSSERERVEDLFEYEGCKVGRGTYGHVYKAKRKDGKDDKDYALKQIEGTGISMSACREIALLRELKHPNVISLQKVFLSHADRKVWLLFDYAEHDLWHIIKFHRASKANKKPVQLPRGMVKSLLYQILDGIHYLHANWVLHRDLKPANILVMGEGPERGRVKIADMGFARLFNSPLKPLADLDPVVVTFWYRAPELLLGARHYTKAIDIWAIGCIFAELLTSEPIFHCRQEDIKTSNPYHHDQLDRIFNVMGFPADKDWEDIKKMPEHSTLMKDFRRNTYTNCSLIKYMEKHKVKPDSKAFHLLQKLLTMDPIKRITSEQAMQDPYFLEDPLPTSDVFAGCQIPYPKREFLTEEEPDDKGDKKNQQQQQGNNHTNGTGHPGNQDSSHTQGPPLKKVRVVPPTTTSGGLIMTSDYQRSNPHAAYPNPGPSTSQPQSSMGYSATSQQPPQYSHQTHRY
Chain of CDK8/CycC (P24863 whole entry partner): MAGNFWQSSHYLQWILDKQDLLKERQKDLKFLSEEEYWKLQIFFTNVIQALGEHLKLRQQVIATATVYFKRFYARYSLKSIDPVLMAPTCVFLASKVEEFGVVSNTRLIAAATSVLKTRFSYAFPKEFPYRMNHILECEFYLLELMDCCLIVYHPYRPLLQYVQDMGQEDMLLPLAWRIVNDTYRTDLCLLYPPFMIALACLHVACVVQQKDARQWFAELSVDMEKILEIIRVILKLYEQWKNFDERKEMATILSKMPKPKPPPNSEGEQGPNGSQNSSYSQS

Chain of CDK1/CycB1 (P06493 whole entry): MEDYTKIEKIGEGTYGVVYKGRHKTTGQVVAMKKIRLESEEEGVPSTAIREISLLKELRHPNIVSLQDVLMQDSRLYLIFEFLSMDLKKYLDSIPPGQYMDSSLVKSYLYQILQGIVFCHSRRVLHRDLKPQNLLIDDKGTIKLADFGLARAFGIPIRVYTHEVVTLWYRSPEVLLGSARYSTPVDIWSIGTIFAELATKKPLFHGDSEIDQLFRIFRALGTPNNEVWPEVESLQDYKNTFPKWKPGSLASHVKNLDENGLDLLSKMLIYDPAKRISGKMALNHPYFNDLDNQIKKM
Chain of CDK1/CycB1 (P14635 whole entry partner): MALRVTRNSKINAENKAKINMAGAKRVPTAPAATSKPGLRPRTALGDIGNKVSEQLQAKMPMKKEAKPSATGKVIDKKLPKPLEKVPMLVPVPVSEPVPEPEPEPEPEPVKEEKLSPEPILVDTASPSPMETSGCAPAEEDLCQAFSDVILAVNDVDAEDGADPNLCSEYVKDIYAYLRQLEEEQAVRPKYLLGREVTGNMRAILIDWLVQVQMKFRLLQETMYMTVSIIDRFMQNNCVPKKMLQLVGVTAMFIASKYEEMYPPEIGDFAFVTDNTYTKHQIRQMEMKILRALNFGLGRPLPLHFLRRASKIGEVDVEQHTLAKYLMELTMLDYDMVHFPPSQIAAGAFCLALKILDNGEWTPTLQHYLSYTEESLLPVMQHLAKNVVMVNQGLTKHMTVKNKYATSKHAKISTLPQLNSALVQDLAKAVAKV
Chain of CDK3/CycE1 (Q00526 whole entry): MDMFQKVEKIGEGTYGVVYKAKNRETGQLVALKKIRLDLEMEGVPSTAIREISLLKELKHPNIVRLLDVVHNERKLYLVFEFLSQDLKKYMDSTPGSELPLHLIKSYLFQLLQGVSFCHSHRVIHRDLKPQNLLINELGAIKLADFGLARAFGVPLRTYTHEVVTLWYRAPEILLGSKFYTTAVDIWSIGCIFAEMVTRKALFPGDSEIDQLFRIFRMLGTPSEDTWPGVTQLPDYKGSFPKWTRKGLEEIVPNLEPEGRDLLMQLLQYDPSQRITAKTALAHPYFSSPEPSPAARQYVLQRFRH
Chain of CDK3/CycE1 (P24864 whole entry partner): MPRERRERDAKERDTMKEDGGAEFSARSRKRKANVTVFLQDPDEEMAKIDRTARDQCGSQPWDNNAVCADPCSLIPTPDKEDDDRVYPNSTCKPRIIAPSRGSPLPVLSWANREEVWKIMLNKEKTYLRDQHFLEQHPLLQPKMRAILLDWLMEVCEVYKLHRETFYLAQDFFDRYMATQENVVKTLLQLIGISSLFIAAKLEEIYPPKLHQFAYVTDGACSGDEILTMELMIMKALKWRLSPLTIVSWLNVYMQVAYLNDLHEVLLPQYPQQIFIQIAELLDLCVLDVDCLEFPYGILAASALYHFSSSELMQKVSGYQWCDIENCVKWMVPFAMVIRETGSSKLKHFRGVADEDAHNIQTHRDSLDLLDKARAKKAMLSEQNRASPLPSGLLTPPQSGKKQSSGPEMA
Chain of CDK19/CycC (Q9BWU1 whole entry): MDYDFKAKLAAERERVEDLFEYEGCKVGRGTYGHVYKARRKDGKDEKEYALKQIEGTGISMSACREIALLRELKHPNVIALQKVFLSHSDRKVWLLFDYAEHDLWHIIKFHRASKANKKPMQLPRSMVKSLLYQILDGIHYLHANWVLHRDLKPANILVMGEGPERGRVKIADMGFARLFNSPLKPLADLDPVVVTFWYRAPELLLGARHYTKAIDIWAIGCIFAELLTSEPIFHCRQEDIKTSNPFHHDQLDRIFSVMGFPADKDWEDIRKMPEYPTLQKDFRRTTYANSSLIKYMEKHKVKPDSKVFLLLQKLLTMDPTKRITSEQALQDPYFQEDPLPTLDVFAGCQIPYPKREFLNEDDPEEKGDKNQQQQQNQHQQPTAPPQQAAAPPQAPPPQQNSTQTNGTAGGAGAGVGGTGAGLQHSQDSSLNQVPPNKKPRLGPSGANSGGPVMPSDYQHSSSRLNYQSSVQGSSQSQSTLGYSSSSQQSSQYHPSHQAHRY
Chain of CDK19/CycC (P24863 whole entry partner): as the sequence (P24863 whole entry partner) above

## Cc1c(Br)c(Br)c2c3c1nc(N1CCNCC1)n3CCC2 [SEL120-34A]
CDK3/CycE1; mean, read-out: % remaining activity @1μM CDK3/CycE1 Mean
  remaining activity at 1 µM: 89%
CDK3/CycE1; repeat 1, read-out: % remaining activity @1μM CDK3/CycE1 repeat 1
  remaining activity at 1 µM: 97%
CDK3/CycE1; repeat 2, read-out: % remaining activity @1μM CDK3/CycE1 repeat 2
  remaining activity at 1 µM: 82%
CDK1/CycB1; mean, read-out: % remaining activity @1μM CDK1/CycB1 Mean
  remaining activity at 1 µM: 88%
CDK1/CycB1; repeat 1, read-out: % remaining activity @1μM CDK1/CycB1 repeat 1
  remaining activity at 1 µM: 87%
CDK1/CycB1; repeat 2, read-out: % remaining activity @1μM CDK1/CycB1 repeat 2
  remaining activity at 1 µM: 89%
[1]; 30 mg/kg BID PO
  GRA: 34%
  HCT: 47.7%
  HGB: 14.7 g/dL
  LYMPH: 60.2%
  MONO: 5.7%
  MPV: 6.6 μm3
  PLT: 1305.4 103/mm3
  RBC: 9.5 106/mm3
  WBC: 12.8 103/mm3
[1]; 30 mg/kg QD PO
  GRA: 25.9%
  HCT: 46.2%
  HGB: 14.7 g/dL
  LYMPH: 68.6%
  MONO: 5.5%
  MPV: 6.1 μm3
  PLT: 1169.4 103/mm3
  RBC: 9 106/mm3
  WBC: 10.1 103/mm3
[1]; 60 mg/kg QD PO
  GRA: 29.2%
  HCT: 46.4%
  HGB: 14.1 g/dL
  LYMPH: 65.1%
  MONO: 5.7%
  MPV: 6.6 μm3
  PLT: 1050.6 103/mm3
  RBC: 8.9 106/mm3
  WBC: 10.4 103/mm3
[1]; subchronic 14 days treatment, healthy immunocompetent CD-1 mice
  alterations in the peripheral blood: not associated with significant alterations
CDK19/CycC
  pIC50: 7.98
AML cell lines
  GI50: < 1000 nM
CDK8/CycC
  pKd: 8.52

Source: PMC5464911, “SEL120-34A is a novel CDK8 inhibitor active in AML cells with high levels of serine phosphorylation of STAT1 and STAT5 transactivation domains” (Oncotarget, 2017)
